Assay results as given in patent US20090291910A1, “AGENT AND FOOD FOR PREVENTING/IMPROVING FUNCTIONAL DIGESTIVE DISORDER” (AJINOMOTO CO., INC, priority 2004, published 2009).

Experiments:
[1] = test system: stomach emptying; assay: gastric emptying rate, phenol red in 5% casein fluid diet; settings: oral in 5% casein fluid diet, 30 min; for stomach emptying rate: FIGS. 7A, 7B, 7C
[2] = test system: stomach emptying; assay: stomach emptying, glass beads distribution in stomach and small intestine; format: in vivo, SD rats; settings: 1% monosodium glutamate in 5% casein, 10 mL/kg oral; beads 1 hr later, autopsy 30 min later; N=5 vs N=4; FIG. 5
Experimental: 7-to 9-week-old male SD rats were fasted overnight and applied to the experiment. A test diet was orally administered at a volume of 10 mL/kg and, 1 hr later, about 80 glass beads having a diameter of 1 mm were orally administered. The rats were autopsied 30 min later, and the number of beads present in the stomach and small intestine was counted. The small intestine was divided into 4, and named B1-B4 from the area near the stomach.

[3] = test system: vagus nerve afferent pathway; settings: cited from earlier work
[4] = test system: plasma 5HT and 5HIAA in portal blood; assay: leakage of serotonin and 5HIAA in the portal blood after intragastric administration; format: in vivo, SD rats; settings: 450 mM MSG 2 mL oral, 0-60 min
Experimental: Male SD rats (8-week-old) were used. They were bred in a light-dark control room with a 7:00-19:00 light period. […] The catheter was filled with saline containing 10 unit/mL heparin to prevent hematological coagulation in the catheter. Saline and MSG 450 mM solution were each administered orally by 2 mL using an oral sonde. The blood was drawn every 10 min from 10 min before the administration to 60 min after the administration. To prevent unnecessary platelet activation, blood samples were collected with sufficient attention. […] To the separated plasma was rapidly added an equivalent amount of a mixture (adjusted to pH 2) of acetic acid and hydrochloric acid to eliminate protein. The serotonin (5-HT) amount and 5HIAA amount contained in the supernatant were analyzed by an electric chemical detector (ECD-100, manufactured by Accom Inc.). The analysis conditions were as follows.
Using the aforementioned analysis method, serotonin and 5HIAA of stable metabolite thereof of the same sample were quantitated. […] Each was normalized based on the value at 0 min immediately after administration as 100%. The blood collection time immediately after 2 mL intragastric administration was taken as 0 min.

[5] = test system: NO release in the stomach mucous membrane; assay: NO release in the stomach mucous membrane during intragastric perfusion (NO electrode); format: in vivo, SD rat
Experimental: SD rat was subjected to laparotomy with urethane anesthesia, a small incision was made in the anterior stomach and the small intestine, a 2 mm diameter polyethylene tube was inserted, and the perfusate was introduced and discharged with a Perista Pump. The perfusate was heated to 38° C. and the flow rate was 1 mL/min. The NO electrode was maintained under the lamina muscularis mucosae together with a temperature sensor, saline was perfused in the stomach for 2-3 hr, the released NO value was stabilized, and isotonic MSG solution (150 mM) was perfused during the time zone of 14:00-18:00.

Compound: lysine glutamic acid salt
- stomach emptying rate [1]: promote stomach emptying

Compound: N[C@@H](CCC(=O)O)C(=O)O [glutamic acid]
- distribution of beads in stomach and small intestine versus control group [2]: tends to contain a smaller number of beads in the stomach and a large number of beads in the small intestine

Compound: N[C@@H](CCC(=O)[O-])C(=O)[O-].[Ca+2] [calcium glutamate]
- stomach emptying rate [1]: promote stomach emptying

Compound: N[C@@H](CCC(=O)O)C(=O)[O-].[Na+] [monosodium glutamate]
- stomach emptying degree with the stomach emptying rate of the control group as 100 ([1]; FIGS. 6A, 6B): promoted stomach emptying
- activation of the vagus nerve afferent pathway ([3]; administration into the stomach and duodenum): activates the vagus nerve afferent pathway
- activation of the vagus nerve ([3]; intravenous and intraportal administration): does not activate the vagus nerve
- relative concentration of plasma 5HT in portal blood versus saline administration ([4]; FIG. 4A): no difference
- relative concentration of plasma metabolite 5HIAA in portal blood versus saline administration ([4]; FIG. 4B): showed an increase beyond the increase by the saline administration group
- NO concentration in the stomach mucous membrane ([5]; MSG (2.5%) perfusion, FIG. 3): confirmed to increase
- latent time of increase in released NO ([5]; isotonic MSG (2.5%) perfused in the stomach): ~15 min
- cases with an increase in the released NO ([5]; isotonic MSG (2.5%, 150 mM) perfused in the stomach): 3 cases out of 20 cases

Compound: arginine glutamic acid salt
- comparison of stomach emptying effect with sodium salt ([1]; FIGS. 6A, 6B): promotes stomach emptying from lower doses as compared to sodium salt
- stomach emptying degree with the stomach emptying rate of the control group as 100 ([1]; FIGS. 6A, 6B): promoted stomach emptying
